Test results taken from US20070167427A1, “1,2,4-Triazolo[4,3-a]pyridines useful in the treatment of gastrointestinal disorders” (Altana Pharma AG, priority 2004, published 2007).

What was measured:
[1] = test system: pentagastrin-stimulated acid secretion of the perfused rat stomach; assay: Secretion-inhibiting action on the perfused rat stomach (pentagastrin-stimulated acid secretion, intraduodenal administration in vivo); details: anesthetized female CD rat, dose 1.0 μmol/kg i.d.
From the text: Testing of the Secretion-inhibiting Action on the Perfused Rat Stomach
In Table A which follows, the influence of the compounds according to the invention on the pentagastrin-stimulated acid secretion of the perfused rat stomach after intraduodenal administration in vivo is shown.
The abdomen of anesthetized rats (CD rat, female, 200-250 g; 1.5 g/kg i.m. urethane) was opened after tracheotomy by a median upper abdominal incision and a PVC catheter was fixed transorally in the esophagus and another via the pylorus such that the ends of the tubes just projected into the gastric lumen. The catheter leading from the pylorus led outward into the right abdominal wall through a side opening.
After thorough rinsing (about 50-100 ml), warm (37° C.) physiological NaCl solution was continuously passed through the stomach (0.5 ml/min, pH 6.8-6.9; Braun-Unita I). The pH (pH meter 632, glass electrode EA 147; φ=5 mm, Metrohm) and, by titration with a freshly prepared 0.01N NaOH solution to pH 7 (Dosimat 665 Metrohm), the secreted HCl were determined in the effluent in each case collected at an interval of 15 minutes.
The gastric secretion was stimulated by continuous infusion of […] (=1.65 ml/h) of i.v. pentagastrin (left femoral vein) about 30 min after the end of the operation (i.e. after determination of 2 preliminary fractions). […]

CCc1cccc(C)c1CNc1cc(C(=O)OC)cn2c(C)nnc12 [Example 1, 8-(2-Ethyl-6-methyl-benzylamino)-3-methyl[1,2,4]triazolo[4,3-a]pyridine-6-carboxylic acid methyl ester]
melting point: 214.4 °C

CCc1cccc(C)c1CNc1cc(C(=O)O)cn2c(C)nnc12 [Example 2, 8-(2-Ethyl-6-methyl-benzylamino)-3-methyl[1,2,4]triazolo[4,3-a]pyridine-6-carboxylic acid]
melting point: 328.1 °C

CCc1cccc(C)c1CNc1cc(C(=O)N(C)C)cn2c(C)nnc12 [Example 3, 8-(2-Ethyl-6-methylbenzylamino)-N,N,3-trimethyl[1,2,4]triazolo[4,3-a]pyridine-6-carboxamide]
Inhibition of acid secretion [1]: >30%
melting point: 201.3 °C

CCc1cccc(C)c1CNc1cc(C(=O)NCCOC)cn2c(C)nnc12 [Example 4, 8-(2-Ethyl-6-methylbenzylamino)-N-(2-methoxyethyl)-3-methyl[1,2,4]triazolo-[4,3-a]pyridine-6-arboxamide]
Inhibition of acid secretion [1]: >30%
